Paper PMC7031696 (Cell chemical biology, 2019)
Entries after “also recorded” stand apart in the source; their conditions may differ. Read-outs that look alike come from different tables or passages of the source.

Tests used:
[1] = system: 3D7-MR4 trophozoite parasite-infected RBCs; test: Metabolomic profiling (hydrophilic metabolite changes, UHPLC-MS); assay type: cell-based, Plasmodium falciparum
[2] = system: Plasmodium falciparum 3D7-A10 parasites; test: Stage specificity assay (8-h exposure of synchronized stages, IC50^8h); assay type: cell-based; conditions: for IC50: Plasmodium falciparum; for Stage of peak activity (Figure 6): period when the parasite was most susceptible (lowest IC50^8h)
[3] = system: 3D7-A10 or Dd2-B2 parasites; test: Resistance selections (single step, pulsing or ramping); assay type: cell-based, Plasmodium falciparum
[4] = system: asynchronous 3D7-A10 parasite cultures; test: Standard 72-h exposure asexual blood stage susceptibility assay (IC50^72h); assay type: cell-based, Plasmodium falciparum; conditions: Plasmodium falciparum, 3D7, 72 h, read-out: Overall (72hr assay) Mean IC50 (IC50^72h)
physchem = conditions: pH 7.4, aqueous buffer, kinetic from dmso stock
[5] = 10 × IC50^72h, 2.5 hr, trophozoites
[6] = 3D7, read-out: Early rings Mean IC50 (IC50^8h), 8-h exposure 0–8 hr, 3D7-A10, survival at 60 h
[7] = 3D7, read-out: Early trophozoites Mean IC50 (IC50^8h), 8-h exposure 16–24 hr, 3D7-A10, survival at 60 h
[8] = 3D7, read-out: Late rings Mean IC50 (IC50^8h), 8-h exposure 8–16 hr, 3D7-A10, survival at 60 h
[9] = 3D7, read-out: Late trophozoites Mean IC50 (IC50^8h), 8-h exposure 24–32 hr, 3D7-A10, survival at 60 h
[10] = 3D7, read-out: Schizonts Mean IC50 (IC50^8h), 8-h exposure 32–40 hr, 3D7-A10, survival at 60 h

CCCOCc1cc(CN2CCN(c3cccc(Cl)c3)CC2)c(O)c2ncccc12 [MMV000787]
metabolic signature: increases in the pyrimidine precursors dihydroorotate and N-carbamoyl-L-aspartate (mETC disruption) [1, 5]: observed
orotidine 5-P levels [1, 5]: decreased
Log2(fold changes) 3-phosphoglycerate ([1]; metabolite 3-phosphoglycerate, log2 fold change): -0.5371
Log2(fold changes) 4-Pyridoxic acid ([1]; metabolite 4-Pyridoxic acid, log2 fold change): -0.4654
Log2(fold changes) 4-aminobutyrate ([1]; metabolite 4-aminobutyrate, log2 fold change): 0.0414
Log2(fold changes) 4-phosphopantetheine ([1]; metabolite 4-phosphopantetheine, log2 fold change): 0.0000
Log2(fold changes) 4-phosphopantothenate ([1]; metabolite 4-phosphopantothenate, log2 fold change): -0.5845
Log2(fold changes) 5-aminopentanoic acid ([1]; metabolite 5-aminopentanoic acid, log2 fold change): 0.0000
Log2(fold changes) 5-methyl-THF ([1]; metabolite 5-methyl-THF, log2 fold change): 0.0000
Log2(fold changes) 5-phosphoribosyl-1-pyrophosphate ([1]; metabolite 5-phosphoribosyl-1-pyrophosphate, log2 fold change): 0.0000
Log2(fold changes) 6-phospho-D-gluconate ([1]; metabolite 6-phospho-D-gluconate, log2 fold change): -0.3590
Log2(fold change) HVDD ([1]; metabolite HVDD): -0.3092
Log2(fold change) Hydroxyisocaproic acid ([1]; metabolite Hydroxyisocaproic acid): 0.0000
Log2(fold change) IDP ([1]; metabolite IDP): 0.0000
Log2(fold change) IMP ([1]; metabolite IMP): -0.1140
Log2(fold change) Inositol ([1]; metabolite Inositol): 0.0000
Log2(fold change) Isopentyl-PP ([1]; metabolite Isopentyl-PP): -1.2940
Log2(fold change) L-arginino-succinate ([1]; metabolite L-arginino-succinate): 0.4157
Log2(fold change) LD ([1]; metabolite LD): 0.2463
Log2(fold change) Myristoyl/tetradecanoyl-CoA ([1]; metabolite Myristoyl/tetradecanoyl-CoA): 0.0000
Log2(fold change) N-Acetyl-L-alanine ([1]; metabolite N-Acetyl-L-alanine): -0.3215
Log2(fold change) N-acetyl-L-ornithine ([1]; metabolite N-acetyl-L-ornithine): -0.0825
Log2(fold change) N-acetyl-glucosamine-1/6-phosphate ([1]; metabolite N-acetyl-glucosamine-1/6-phosphate): -0.1305
Log2(fold change) N-acetyl-glutamate ([1]; metabolite N-acetyl-glutamate): -0.2597
Log2(fold change) N-acetyl-glutamine ([1]; metabolite N-acetyl-glutamine): -0.3137
Log2(fold change) N-carbamoyl-L-aspartate ([1]; metabolite N-carbamoyl-L-aspartate): 1.8530
Log2(fold change) NAD+ ([1]; metabolite NAD+): -0.4850
Log2(fold change) NADH ([1]; metabolite NADH): 0.6916
Log2(fold change) NADP+ ([1]; metabolite NADP+): -0.1054
Log2(fold change) NADPH ([1]; metabolite NADPH): 0.8357
Log2(fold change) O-acetyl-L-serine ([1]; metabolite O-acetyl-L-serine): 0.0023
Log2(fold change) Octoluse 8/1P ([1]; metabolite Octoluse 8/1P): -0.4530
Log2(fold change) Octoluse Bisphosphate ([1]; metabolite Octoluse Bisphosphate): -0.4981
Log2(fold change) PD ([1]; metabolite PD): 0.8974
Log2(fold change) PE ([1]; metabolite PE): 0.4326
Log2(fold change) PEE ([1]; metabolite PEE): -0.3726
Log2(fold change) PEEK ([1]; metabolite PEEK): 0.6684
Log2(fold change) PVNF ([1]; metabolite PVNF): -0.7950
Log2(fold change) Pyroglutamic acid ([1]; metabolite Pyroglutamic acid): -0.5088
Log2(fold change) Pyrophosphate ([1]; metabolite Pyrophosphate): 0.0000
Log2(fold change) Ribose-5-phosphate ([1]; metabolite Ribose-5-phosphate): -0.4878
Log2(fold change) S-adenosyl-L-homocysteine ([1]; metabolite S-adenosyl-L-homocysteine): -0.1665
Log2(fold change) S-adenosyl-L-methioninamine ([1]; metabolite S-adenosyl-L-methioninamine): 1.4172
Log2(fold change) S-adenosyl-L-methionine ([1]; metabolite S-adenosyl-L-methionine): 0.0000
Log2(fold change) S-methyl-5'-thioadenosine ([1]; metabolite S-methyl-5'-thioadenosine): 0.1323
Log2(fold change) SD ([1]; metabolite SD): 0.5833
Log2(fold change) SDL ([1]; metabolite SDL): 0.0000
Log2(fold change) SID ([1]; metabolite SID): 0.2266
Log2(fold change) Sedoheptulose bisphosphate ([1]; metabolite Sedoheptulose bisphosphate): -0.5430
Log2(fold change) Thiamine pyrophosphate ([1]; metabolite Thiamine pyrophosphate): -0.2018
Log2(fold changes) UDP-D-glucose ([1]; metabolite UDP-D-glucose, log2 fold change): -0.1946
Log2(fold changes) UDP-D-glucuronate ([1]; metabolite UDP-D-glucuronate, log2 fold change): -0.2169
Log2(fold changes) UDP-N-acetyl-glucosamine ([1]; metabolite UDP-N-acetyl-glucosamine, log2 fold change): -0.3874
Log2(fold changes) UDP ([1]; metabolite UDP, log2 fold change): -0.9589
Log2(fold changes) UMP ([1]; metabolite UMP, log2 fold change): -0.1735
Log2(fold changes) UTP ([1]; metabolite UTP, log2 fold change): 0.0000
Log2(fold change) hydroxyphenylpyruvate ([1]; metabolite hydroxyphenylpyruvate): 0.0000
Log2(fold change) hydroxyproline/Aminolevulinate ([1]; metabolite hydroxyproline/Aminolevulinate): -0.3494
Log2(fold change) hypoxanthine ([1]; metabolite hypoxanthine): -0.2301
Log2(fold change) indole ([1]; metabolite indole): 0.0000
Log2(fold change) inosine ([1]; metabolite inosine): -0.0358
Log2(fold change) isoleucine ([1]; metabolite isoleucine): 0.0000
Log2(fold change) lactate ([1]; metabolite lactate): -0.6338
Log2(fold change) leucine ([1]; metabolite leucine): 0.0000
Log2(fold change) lysine ([1]; metabolite lysine): -0.1255
Log2(fold change) malate ([1]; metabolite malate): 0.0012
Log2(fold change) maleic acid ([1]; metabolite maleic acid): 0.0284
Log2(fold change) methionine ([1]; metabolite methionine): -0.0998
Log2(fold change) myo-inositol ([1]; metabolite myo-inositol): -0.7776
Log2(fold change) nicotinamide mononucleotide ([1]; metabolite nicotinamide mononucleotide): -0.2457
Log2(fold change) nicotinate ([1]; metabolite nicotinate): -0.3114
Log2(fold change) ornithine ([1]; metabolite ornithine): 0.0122
Log2(fold change) orotate ([1]; metabolite orotate): 0.0632
Log2(fold change) orotidine-5'-phosphate ([1]; metabolite orotidine-5'-phosphate): -0.3294
Log2(fold change) oxaloacetate ([1]; metabolite oxaloacetate): -0.6486
Log2(fold change) p-aminobenzoate ([1]; metabolite p-aminobenzoate): 0.0000
Log2(fold change) p-hydroxybenzoate ([1]; metabolite p-hydroxybenzoate): 0.0000
Log2(fold change) pantothenate ([1]; metabolite pantothenate): -0.1388
Log2(fold change) phenylalanine ([1]; metabolite phenylalanine): -0.3732
Log2(fold change) phenylpyruvate ([1]; metabolite phenylpyruvate): 0.0000
Log2(fold change) phosphoenolpyruvate ([1]; metabolite phosphoenolpyruvate): -0.1822
Log2(fold change) prephenate ([1]; metabolite prephenate): 0.5798
Log2(fold change) proline ([1]; metabolite proline): -0.4229
Log2(fold change) pyridoxine ([1]; metabolite pyridoxine): -0.3069
Log2(fold change) pyruvate ([1]; metabolite pyruvate): -1.0960
Log2(fold change) riboflavin ([1]; metabolite riboflavin): -0.1793
Log2(fold change) ribose ([1]; metabolite ribose): -0.0760
Log2(fold change) ribose-phosphate ([1]; metabolite ribose-phosphate): -0.9121
Log2(fold change) ribulose-5-phosphate ([1]; metabolite ribulose-5-phosphate): -0.5577
Log2(fold change) serine ([1]; metabolite serine): -0.1539
Log2(fold change) sn-glycerol-3-phosphate ([1]; metabolite sn-glycerol-3-phosphate): 0.0054
Log2(fold change) succinate/Methylmalonic acid ([1]; metabolite succinate/Methylmalonic acid): -0.5977
Log2(fold change) succinyl-CoA/methylmalonyl-CoA ([1]; metabolite succinyl-CoA/methylmalonyl-CoA): 0.0000
Log2(fold change) taurine ([1]; metabolite taurine): -0.2559
Log2(fold change) thiamine ([1]; metabolite thiamine): -0.2060
Log2(fold change) threonine/homoserine ([1]; metabolite threonine/homoserine): -0.2606
Log2(fold change) thymidine ([1]; metabolite thymidine): 0.0000
Log2(fold changes) thymine ([1]; metabolite thymine, log2 fold change): 0.0000
Log2(fold changes) trehalose-6-Phosphate ([1]; metabolite trehalose-6-Phosphate, log2 fold change): 0.0000
Log2(fold changes) tryptophan ([1]; metabolite tryptophan, log2 fold change): -0.8402
Log2(fold changes) tyrosine ([1]; metabolite tyrosine, log2 fold change): -0.1716
Log2(fold changes) uridine ([1]; metabolite uridine, log2 fold change): 0.0000
Ratio lowest IC50 8hr/IC50 72hr ([2]; 3D7-A10): 0.7
killing in stage specificity assay ([2]; 8-h exposures, survival curves): incomplete killing
IC50 ([2]; 3D7, 8 h, read-out: IC50^8h values at all tested stages, 8-h exposures, all asexual blood stages): > 1 µM
IC50 [2, 6]: 5.74 µM
IC50 [2, 7]: 3.31 µM
IC50 [2, 8]: 7.87 µM
IC50 [2, 9]: 1.35 µM
IC50 [2, 10]: 5.91 µM
Stage of peak activity (Figure 6) [2]: late trophozoites
Peak Activity (Table S1) ([2]; stage(s) with the lowest IC50^8h): Late Trophs
outcome of resistance selections (continuous exposure or pulsing) ([3]; 5 × 10^8 to 1 × 10^9 3D7-A10 or Dd2-B2 parasites, 3–6 × IC50^72h): did not result in MMV000787-resistant parasites
minimum inocula of resistance ([3]; from failed selections in 3D7-A10 / Dd2-B2): above 5 × 10^8 parasites
IC50 [4]: 1.96 µM

C[C@H]1[C@@H](O)O[C@@H]2O[C@@]3(C)CC[C@H]4[C@H](C)CC[C@@H]1[C@@]24OO3 [Dihydroartemisinin, reference compound]
solubility at 1.5 h (physchem): ≥ 500 µM
overall activity profile (stages on which active) ([2]; 8-h exposures): activity on all stages
IC50 [2, 6]: 0.0015 µM
IC50 [2, 7]: 0.0024 µM
IC50 [2, 8]: 0.0024 µM
IC50 [2, 9]: 0.0039 µM
IC50 [2, 10]: 0.0116 µM
Stage of peak activity (Figure 6) [2]: ring and trophozoite stages; also recorded: rings and trophozoites
IC50 [4]: 0.001 µM
